From patent publication US5650406A, “Adamantane derivative, process for producing the same, and use thereof” (Asahi Kasei Kogyo Kabushiki Kaisha, priority 1994, dated 1997)
Like-named read-outs stand apart in the source and are kept apart here.

Tests used:
σ-receptor [1] = assay: σ-receptor binding, [^3 H] DTG displacement on rat brain membranes (Table 1); set-up: species or system Sprague-Dowley rats; conditions: for Ki: hydrochloride, [^3 H] DTG 3 nM, 25° C., 60 minutes, rat brain membrane, read-out: Sigma [^3 H] DTG Ki
[2] = test system: apomorphine induced climbing; assay: Suppressive action on apomorphine induced climbing (Table 2); type: in vivo, ICR mice, male; conditions: hydrochloride; 30 mg/kg, p.o.; 1 hour before apomorphine 2 mg/kg s.c.; climbing observed 3 minutes after 20-23 minutes
Experimental: Administering dopamine agohist, apomorphine in mouse resulted various abnormal behaviors, and especially, a climbing the cage has been known to be correlated with human schizophrenia. Therefore, a drug showing suppressire activity for apomorphine induced climbing in mice can be presumed to be effective as antischizophrenia activity on humans.
The compounds of the present invention were administered orally in ICR mice, male (Charles River Corp.), and after 1 hour, apomorphine 2 mg/kg was administered subcutaneously. Climbing behaviors of 3 minutes after 20-23 minutes of apomorphine administration were observed. Climbing behavior was observed by entering the mice in stainless steel made wire netting cage and measuring time remaining above the upper part of half part of the cage at observing. A climbing time of apomorphine single administered group is set as 100% and shortened time by administering the drug is shown in suppression rate.

σ-receptor [3] = conditions: cited from earlier work

| Compound | Ki (σ-receptor [1]) | further results |
| --- | --- | --- |
| Cc1ccccc1NC(=N)Nc1ccccc1C [radioactive ligand, [^3 H] 1,3-di(2-tolyl) guanidine, reference compound] |  | Kd (σ-receptor [1]; radioactive ligand for σ-receptor, used in Ki calculation, read-out: Kd (concentration of affinity of radioactive ligand for receptor)): 10.6 nM |
| C1C2CC3CC1CC(C2)N(CCC12CC4CC(CC(C4)C1)C2)C3 [Example 11, 4-[2-(1-adamantyl)ethyl]-4-azatricyclo[4.3.1.1^3.8] undecane] | 0.2 nM |  |
| C1CC2CCC1CN(CCC1C3CC4CC(C3)CC1C4)C2 (stereo not drawn) [Example 1, 3-[2-(2-adamantyl)ethyl]-3-azabicyclo[3.2.2] nonane] | 0.34 nM | Suppressive rate [2]: 62% |
| ClC12CC3CC(C1)C(CCN1CC4CC5CC(C4)CC1C5)C(C3)C2 (stereo not drawn) [Example 9, 4-[2-(5-chloro-2-adamantyl)ethyl]-4-azatricyclo[4.3.1.1^3.8] undecane] | 0.55 nM |  |
| CC12CC3CC(C1)CC(CCN1CC4CCC(CC4)C1)(C3)C2 [Example 6, 3-[2-(3-methyl-l-adamantyl)ethyl]-3-azabicyclo[3.2.2] nonane] | 0.45 nM |  |
| COC12CC3CC(C1)C(CCN1CC4CC5CC(C4)CC1C5)C(C3)C2 (stereo not drawn) [Example 10, 4-[2-(5-methoxy-2-adamantyl)ethyl]-4-azatricyclo[4.3.1.1^3.8] undecane] | 0.63 nM |  |
| c1ccc(C2(N3CCCCC3)CCCCC2)cc1 [phencyclidine] |  | affinity to σ-receptor (background, in words) (σ-receptor [3]; prior art): has affinities for σ-receptor |
| CC12CC3CC(C1)CC(CCN1CC4CC5CC(C4)CC1C5)(C3)C2 [Example 12] | 0.29 nM |  |
| OC12CC3CC(C1)C(CCN1CC4CCC(CC4)C1)C(C3)C2 (single isomer, unassigned) [Example 2, 3-[2-(5-hydroxy-2-adamantyl)ethyl]-3-azabicyclo[3.2.2] nonane] | 0.5 nM |  |
| OC(CCCN1CCN(c2ncc(F)cn2)CC1)c1ccc(F)cc1 (stereo not drawn) [BMY-14802] |  | affinity to σ-receptor (background, in words) (σ-receptor [3]; prior art): show affinity to σ-receptor |
| OC12CC3CC(C1)C(CCN1CC4CC5CC(C4)CC1C5)C(C3)C2 (stereo not drawn) [Example 8, 4-[2-(5-hydroxy-2-adanaantyl)ethyl]-4-azatricyclo[4.3.1.1^3.8] undecane] | 1.23 nM | Suppressive rate [2]: 78% |
| ClC12CC3CC(C1)C(CCN1CC4CCC(CC4)C1)C(C3)C2 (single isomer, unassigned) [Example 3, 3-[2-(5-chloro-2-adamantyl)ethyl]-3-azabicyclo[3.2.2] nonane] | 0.27 nM |  |
| C[C@@H]1CN(CCCn2c3ccccc3c3ccccc32)C[C@H](C)N1 [limcazol] |  | affinity to σ-receptor (background, in words) (σ-receptor [3]; prior art): show affinity to σ-receptor |
| COC12CC3CC(C1)C(CCN1CC4CCC(CC4)C1)C(C3)C2 (single isomer, unassigned) [Example 4, 3-[2-(5-methoxy-2-adamantyl)ethyl]-3-azabicyclo[3.2.2] nonane] | 1.03 nM |  |
| O=C(CCCN1CCC(O)(c2ccc(Cl)cc2)CC1)c1ccc(F)cc1 [haloperidol] |  | affinity to σ-receptor (background, in words) (σ-receptor [3]): bind strongly with σ-receptor |
| C1C2CC3CC1CC(C2)C3CCN1CC2CC3CC(C2)CC1C3 (stereo not drawn) [Example 7, 4-[2-(2-adamantyl)ethyl]-4-azatricyclo[4.3.1.1^3.8] undecane] | 0.26 nM | Suppressive rate [2]: 60% |
| haloxon |  | affinity to σ-receptor (background, in words) (σ-receptor [3]; prior art): no affinity to σ-receptor |
| C1CC2CCC1CN(CCC13CC4CC(CC(C4)C1)C3)C2 [Example 5, 3-[2-(1-adamantyl)ethyl]-3-azabicyclo[3.2.2] nonane] | 0.19 nM |  |
